Values of other authors, collected in US20200179295A1, “MRI-DETECTABLE MULTILAYER MICROCAPSULES FOR ULTRASOUND-TRIGGERED DELIVERY OF PHARMACOLOGICALLY ACTIVE AGENTS” (THE UAB RESEARCH FOUNDATION, priority 2018, published 2020).

Settings: 1.5 T; Rohrer et al. 2005

Compound: CC(O)CN1CCN(CC(=O)[O-])CCN(CC(=O)[O-])CCN(CC(=O)[O-])CC1.[Gd+3] (stereo not shown) [ProHance, gadoteridol]
- r1: 4.1 mM⁻¹ s⁻¹
